# According to patent publication US7521528B2, “Conformationally constrained parathyroid hormone (PTH) analogs with lactam bridges” (The General Hospital Corporation, priority 2003, dated 2009):
# Entries after “also recorded” stand apart in the source; their conditions may differ. Positions of bridges follow the written chain, without caps; N, C: chain ends. Non-standard residues stand in square brackets, D forms with d. Residues, ends and D or L forms follow the SMILES beside them. hArg = N=C(N)NCCCC[C@H](N)C(=O)O; Aib = CC(C)(N)C(=O)O
# Experiments:
# [1] = molecular target: T1, recombinant full-length P1R (Homo sapiens, UniProt Q03431); assay: cAMP stimulation in HKRK-B28 cells; format: cell-based; settings: for Emax: percent of maximum response of PTH(1-14), Table 3
# T1 construct: expressed in transfected cells
# T1 sequence (Q03431 27-593): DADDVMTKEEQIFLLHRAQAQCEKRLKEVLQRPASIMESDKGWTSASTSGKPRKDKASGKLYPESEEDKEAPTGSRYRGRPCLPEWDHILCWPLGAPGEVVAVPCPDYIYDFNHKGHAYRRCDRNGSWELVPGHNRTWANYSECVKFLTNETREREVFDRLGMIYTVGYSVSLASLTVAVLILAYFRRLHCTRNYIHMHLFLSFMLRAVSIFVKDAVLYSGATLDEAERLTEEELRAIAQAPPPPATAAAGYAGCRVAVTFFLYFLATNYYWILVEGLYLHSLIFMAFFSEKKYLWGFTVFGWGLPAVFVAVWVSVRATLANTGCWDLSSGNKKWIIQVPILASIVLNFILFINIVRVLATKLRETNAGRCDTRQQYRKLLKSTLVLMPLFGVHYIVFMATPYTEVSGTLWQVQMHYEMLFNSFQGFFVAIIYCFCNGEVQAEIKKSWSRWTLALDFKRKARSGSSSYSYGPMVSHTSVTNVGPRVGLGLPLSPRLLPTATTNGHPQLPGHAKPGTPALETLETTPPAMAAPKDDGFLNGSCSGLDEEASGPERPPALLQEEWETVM
# Experimental: Cell Culture. The cell line HKRK-B28 (Takasu, H., et al., J. Bone Miner. Res. 14:11-20 (1999)) was derived from the porcine kidney cell line, LLC-PK1 by stable transfection with plasmid DNA encoding the full-length P1R and expresses ˜280,000 receptors per cell. These cells, as well as COS-7 cells and SaOS-2-B10 cells, were cultured at […] in T-75 flasks ([…]) in Dulbecco's modified Eagle's medium (DMEM) supplemented with fetal bovine serum (10%), penicillin G (20 units/ml), streptomycin sulfate (20 μg/ml) and amphotericin B (0.05 μg/ml) in a humidified atmosphere containing 5% CO2. Stock solutions of EGTA/trypsin and antibiotics were from GIBCO; fetal bovine serum was from Hyclone Laboratories (Logan, Utah). COS-7 cells sub-cultured in 24-well plates were transfected with plasmid DNA (200 ng per well) encoding the wild-type human P1R or truncated human P1R deleted for residues (24-181) (Shimizu, M., et al., J. Biol. Chem. 275:21836-21843 (2000)) that was purified by cesium chloride/ethidium bromide density gradient centrifugation, and FuGENE 6 transfection reagent (Roche Indianapolis Ind.) according to the manufacturer's recommended procedure. All cells, in 24-well plates, were treated with fresh media and shifted to 33° C. for 12 to 24 h prior to assay.
# (§1) cAMP Stimulation. Stimulation of cells with peptide analogs was performed in 24-well plates. Cells were rinsed with 0.5 mL of binding buffer (50 mM Tris-HCl, 100 mM NaCl, 5 mM KCl, 2 mM CaCl2, 5% heat-inactivated horse serum, 0.5% fetal bovine serum, adjusted to pH 7.5 with HCl) and treated with 200 μL of cAMP assay buffer (Delbecco's modified Eagle's medium containing 2 mM 3-isobutyl-1-methylxanthine, 1 mg/mL bovine serum albumin, 35 mM Hepes-NaOH, pH 7.4) and 100 μL of binding buffer containing varying amounts of peptide analog (final volume=300 μL). The medium was removed after incubation for 30 to 60 minutes at room temperature, and the cells were frozen on dry ice, lysed with 0.5 mL 50 mM HCl, and refrozen ([…]). The cAMP content of the diluted lysate was determined by radioimmunoassay. The EC50 response values were calculated using nonlinear regression (see below).
# (§2) Data Calculation. Calculations were performed using Microsoft® Excel. Nonlinear regression analyses of binding and cAMP dose-response data were performed using the four-parameter equation: yp=Min+[(Max−Min)/(1+(IC50/x)^slope)]. The Excel Solver function was utilized for parameter optimization, as described previously (Carter, P. H., et al., Endocrinology 140: 4972-4981 (1999); Bowen, W. P., and Jerman, J. C., Trends in Pharmacol. Sci. 16: 413-417 (1995)). Differences between paired data sets were statistically evaluated using a one-tailed Student's t-test, assuming unequal variances for the two sets.
# The effects of installing a direct covalent linkage between the side chains of the residues at positions 6 and 10 on PTH analog function were also assessed. To do this, paired Glu^6/Lys^10 or Lys^6/Glu^10 substitutions were introduced into an otherwise non-constrained PTH(1-14) analog scaffold AlaValAlaGluIleGln LeuMetHisGlnHarAlaLysTrp-amide (SEQ. ID. NO. 11) and formed an amide bond between the carboxylate side chain group of the introduced glutamate residue and the amino side chain group of the introduced lysine residue. For controls, a portion of each Glu/Lys- or Lys/Glu-substituted PTH(1-14) analog was preserved in the non-bridged form. The four peptides: [Glu^6, Lys^10]PTH(1-14)(linear)(SEQ. ID. NO. 24), [(Glu^6,Lys^10)lac.]PTH(1-14) cyclized via a 6-10 lactam bridge)(SEQ. ID. NO. 3), [Lys^6, Glu^10]PTH(1-14)(SEQ. ID. NO. 25), and [(Lys^6, Glu^10)lac.]PTH(1-14)(SEQ. ID. NO. 26) were first compared at a single dose of 10 μM for the capacity to stimulate cAMP formulation in HKRK-B28 cells, an LLC-PK1-derived cell line that expresses the recombinant full-length P1R at a moderate level (˜280,000 receptors per cell). […]
# [2] = molecular target: T2, P1R-DelNt (Homo sapiens, UniProt Q03431); assay: cAMP stimulation in LdelNt-2 cells; format: cell-based; settings: for EC50: cAMP accumulation; for Emax: percent of maximum response of PTH(1-14)
# T2 construct: expressed in transfected cells
# T2 sequence (Q03431 with tags, fused parts or gaps limits assumed): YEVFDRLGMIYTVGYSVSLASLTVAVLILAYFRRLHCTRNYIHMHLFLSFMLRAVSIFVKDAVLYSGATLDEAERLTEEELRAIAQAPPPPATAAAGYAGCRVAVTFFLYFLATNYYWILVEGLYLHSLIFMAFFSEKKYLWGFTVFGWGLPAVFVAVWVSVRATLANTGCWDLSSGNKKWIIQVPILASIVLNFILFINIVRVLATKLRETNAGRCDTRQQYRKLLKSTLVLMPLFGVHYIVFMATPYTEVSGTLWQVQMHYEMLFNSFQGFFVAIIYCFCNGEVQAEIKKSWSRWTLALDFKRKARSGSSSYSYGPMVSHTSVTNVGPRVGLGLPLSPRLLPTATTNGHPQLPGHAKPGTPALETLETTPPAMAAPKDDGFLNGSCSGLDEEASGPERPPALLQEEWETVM
# Experimental: as §1, §2
# The two-domain hypothesis of the PTH-P1R interaction mechanism predicts that the effects of the substitutions at positions 6 and 10 observed with the above PTH(1-11) analogs involve interactions (direct or indirect) that occur within the juxtamembrane region of the receptor. To test this hypothesis, P1R-DelNt was utilized. P1R-DeNt is a P1R construct that is deleted for most of the N domain yet which retains nearly full capacity to be expressed on the cell surface and to stimulate cAMP formation in response to N-terminal PTH analogs, and an LLC-PK1-derived cell line was herein established, LdelNt-2, which stably expresses P1R-DelNt.
Compound,Emax [1],EC50 [2],Emax [2],other results
"CC[C@H](C)[C@H](NC(=O)[C@H](CCC(=O)O)NC(=O)[C@H](C)NC(=O)[C@@H](NC(=O)[C@H](C)N)C(C)C)C(=O)N[C@@H](CCC(N)=O)C(=O)N[C@@H](CC(C)C)C(=O)N[C@@H](CCSC)C(=O)N[C@@H](Cc1c[nH]cn1)C(=O)N[C@@H](CCC(N)=O)C(=O)N[C@@H](CCCCNC(=N)N)C(=O)N[C@@H](C)C(=O)N[C@@H](CCCCN)C(=O)N[C@@H](Cc1c[nH]c2ccccc12)C(N)=O [PTH(1-14) (SEQ. ID. NO. 11), [Ala^1,3,12,Gln^10,Har^11,Trp^14]PTH(1-14)amide] (H-AVAEIQLMHQ[hArg]AKW-NH2)",100 ± 2%,,,maximum cAMP response observed ([1]; n=3): 359±52 picomoles of cAMP per well
"CC[C@H](C)[C@H](NC(=O)[C@H](CCC(=O)O)NC(=O)[C@H](C)NC(=O)[C@@H](NC(=O)[C@H](C)N)C(C)C)C(=O)N[C@H]1CCCCNC(=O)CC[C@@H](C(=O)N[C@@H](CCCCNC(=N)N)C(=O)N[C@@H](C)C(=O)N[C@@H](CCCCN)C(=O)N[C@@H](Cc2c[nH]c3ccccc23)C(N)=O)NC(=O)[C@H](Cc2c[nH]cn2)NC(=O)[C@H](CCSC)NC(=O)[C@H](CC(C)C)NC1=O [[(Lys^6, Glu^10)lac.]PTH(1-14)] (H-AVAEIKLMHE[hArg]AKW-NH2; lactam 6-10)",59 ± 3%,,,"capacity to stimulate cAMP formation at a single dose ([1]; 10 μM): more active than its linear counterpart; also recorded: significantly (P<0.0001) greater than that elicited by the linear control; potency relative to linear [Lys^6, Glu^10]PTH(1-14) ([1]; dose-response analyses): six-fold more potent"
"CC[C@H](C)[C@H](NC(=O)[C@H](CCC(=O)O)NC(=O)C(C)(C)NC(=O)[C@@H](NC(=O)C(C)(C)N)C(C)C)C(=O)N[C@@H](CCC(N)=O)C(=O)N[C@@H](CC(C)C)C(=O)N[C@@H](CCSC)C(=O)N[C@@H](Cc1c[nH]cn1)C(=O)N[C@@H](CCC(N)=O)C(=O)N[C@@H](CCCCNC(=N)N)C(=O)N[C@@H](C)C(=O)N[C@@H](CCCCN)C(=O)N[C@@H](Cc1c[nH]c2ccccc12)C(N)=O [[Aib]PTH(1-14), AibValAibGluIleGlnLeuMetHisGlnHarAlaLysTrp-amide] (H-[Aib]V[Aib]EIQLMHQ[hArg]AKW-NH2)",,6.6 ± 1.1 nM,,fold increase in cAMP formation/accumulation [2]: 50 fold
"CC[C@H](C)[C@H](NC(=O)[C@H](CCC(=O)O)NC(=O)C(C)(C)NC(=O)[C@@H](NC(=O)C(C)(C)N)C(C)C)C(=O)N[C@@H](C)C(=O)N[C@@H](CC(C)C)C(=O)N[C@@H](CCSC)C(=O)N[C@@H](Cc1c[nH]cn1)C(=O)N[C@@H](C)C(=O)N[C@@H](CCCCNC(=N)N)C(=O)N[C@@H](C)C(=O)N[C@@H](CCCCN)C(=O)N[C@@H](Cc1c[nH]c2ccccc12)C(N)=O [[Aib^1,3, Ala^6,10]PTH(1-14)] (H-[Aib]V[Aib]EIALMHA[hArg]AKW-NH2)",,24 ± 7 nM,100 ± 3%,"potency relative to [Aib^1,3, Ala^6]PTH(1-14) [2]: six-fold higher"

# Now from value to molecule, other results behind:
Emax [1],EC50 [2],Emax [2],Compound,other results
52 ± 3%,,,"CC[C@H](C)[C@H](NC(=O)[C@H](CCC(=O)O)NC(=O)[C@H](C)NC(=O)[C@@H](NC(=O)[C@H](C)N)C(C)C)C(=O)N[C@@H](CCC(=O)O)C(=O)N[C@@H](CC(C)C)C(=O)N[C@@H](CCSC)C(=O)N[C@@H](Cc1c[nH]cn1)C(=O)N[C@@H](CCCCN)C(=O)N[C@@H](CCCCNC(=N)N)C(=O)N[C@@H](C)C(=O)N[C@@H](CCCCN)C(=O)N[C@@H](Cc1c[nH]c2ccccc12)C(N)=O [[Glu^6, Lys^10]PTH(1-14)] (H-AVAEIELMHK[hArg]AKW-NH2)",
,81 ± 65 nM,104 ± 7%,"CC[C@H](C)[C@H](NC(=O)[C@H](CCC(=O)O)NC(=O)C(C)(C)NC(=O)[C@@H](NC(=O)C(C)(C)N)C(C)C)C(=O)N[C@@H](CCC(N)=O)C(=O)N[C@@H](CC(C)C)C(=O)N[C@@H](CCSC)C(=O)N[C@@H](Cc1c[nH]cn1)C(=O)N[C@@H](C)C(=O)N[C@@H](CCCCNC(=N)N)C(=O)N[C@@H](C)C(=O)N[C@@H](CCCCN)C(=O)N[C@@H](Cc1c[nH]c2ccccc12)C(N)=O [[Aib^1,3, Ala^10]PTH(1-14)] (H-[Aib]V[Aib]EIQLMHA[hArg]AKW-NH2)",potency weaker than parent [Aib]PTH(1-14) [2]: 12 fold
,,101 ± 4%,"CC[C@H](C)[C@H](NC(=O)[C@H](CCC(=O)O)NC(=O)C(C)(C)NC(=O)[C@@H](NC(=O)C(C)(C)N)C(C)C)C(=O)N[C@@H](C)C(=O)N[C@@H](CC(C)C)C(=O)N[C@@H](CCSC)C(=O)N[C@@H](Cc1c[nH]cn1)C(=O)N[C@@H](CCC(N)=O)C(=O)N[C@@H](CCCCNC(=N)N)C(=O)N[C@@H](C)C(=O)N[C@@H](CCCCN)C(=O)N[C@@H](Cc1c[nH]c2ccccc12)C(N)=O [[Aib^1,3, Ala^6]PTH(1-14)] (H-[Aib]V[Aib]EIALMHQ[hArg]AKW-NH2)",potency weaker than parent [Aib]PTH(1-14) [2]: 22 fold
37 ± 5%,,,"CC[C@H](C)[C@H](NC(=O)[C@H](CCC(=O)O)NC(=O)[C@H](C)NC(=O)[C@@H](NC(=O)[C@H](C)N)C(C)C)C(=O)N[C@@H](CCCCN)C(=O)N[C@@H](CC(C)C)C(=O)N[C@@H](CCSC)C(=O)N[C@@H](Cc1c[nH]cn1)C(=O)N[C@@H](CCC(=O)O)C(=O)N[C@@H](CCCCNC(=N)N)C(=O)N[C@@H](C)C(=O)N[C@@H](CCCCN)C(=O)N[C@@H](Cc1c[nH]c2ccccc12)C(N)=O [[Lys^6, Glu^10]PTH(1-14)] (H-AVAEIKLMHE[hArg]AKW-NH2)",
